# From paper PMC9374667 (Communications Biology, 2022)
# “And” between values parts separate entries of the source, which are not always exact repeats. Equal values may be shown once.
# Columns and labels:
# [1] = system: IKKε, TBK1, p-TBK1, UCP1, p-AMPKα; experiment: Western blotting of eWAT; type: in vivo; details: db/db mice
# Method: The adipose tissue or 3T3-L1 adipocytes were homogenized by ultrasound in an ice‐cold RIPA lysis buffer containing 1% PMSF and centrifuged at 12,000 × g at 4°C for 15 min to collect the supernatant. The BCA protein assay kit (Beyotime, Shanghai, China) was used to detect the total protein concentration. Proteins (20-30 μg) of the sample were separated by 10% SDS-PAGE gel and transferred onto polyvinylidene difluoride (PVDF) membranes. Then the PVDF membranes were blocked in 5% skim milk powder in TBS containing 1% Tween-20 (TBST) for 2 h at room temperature and washed with TBST for 3 times. The membranes were incubated with the appropriate primary antibody, IKKε (1:1000 dilution), TBK1 (1:1000 dilution), p-TBK1 Ser172 (1:1000 dilution), p-AMPKα Thr172 (1:1000 dilution), UCP1 (1:1000 dilution), and GAPDH (1:1000 dilution) in the blocking buffer solution at 4 °C overnight. After washing, the membranes were incubated with horseradish peroxidase-conjugated secondary antibodies (in 5% skim milk powder) for 1 h at room temperature. Finally, the membranes were treated with enhanced chemiluminescence agents (Tanon, Shanghai, China) and the signals were monitored using the Tanon 5200 multi chemiluminescent imaging system (Tanon, Shanghai, China).
# [2] = target: T1, TBK1 (Mus musculus, UniProt Q9WUN2); experiment: TBK1 kinase activity in TNF-α induced 3T3-L1 adipocytes; type: cell-based, Murine; set-up: host or cells: differentiated 3T3-L1 adipocytes (Lipofectamine 2000); TBK1 kinase activity: unit not given here; details: for TBK1 kinase activity: Figure 7g, replicates
# T1 sequence (Q9WUN2 1-729): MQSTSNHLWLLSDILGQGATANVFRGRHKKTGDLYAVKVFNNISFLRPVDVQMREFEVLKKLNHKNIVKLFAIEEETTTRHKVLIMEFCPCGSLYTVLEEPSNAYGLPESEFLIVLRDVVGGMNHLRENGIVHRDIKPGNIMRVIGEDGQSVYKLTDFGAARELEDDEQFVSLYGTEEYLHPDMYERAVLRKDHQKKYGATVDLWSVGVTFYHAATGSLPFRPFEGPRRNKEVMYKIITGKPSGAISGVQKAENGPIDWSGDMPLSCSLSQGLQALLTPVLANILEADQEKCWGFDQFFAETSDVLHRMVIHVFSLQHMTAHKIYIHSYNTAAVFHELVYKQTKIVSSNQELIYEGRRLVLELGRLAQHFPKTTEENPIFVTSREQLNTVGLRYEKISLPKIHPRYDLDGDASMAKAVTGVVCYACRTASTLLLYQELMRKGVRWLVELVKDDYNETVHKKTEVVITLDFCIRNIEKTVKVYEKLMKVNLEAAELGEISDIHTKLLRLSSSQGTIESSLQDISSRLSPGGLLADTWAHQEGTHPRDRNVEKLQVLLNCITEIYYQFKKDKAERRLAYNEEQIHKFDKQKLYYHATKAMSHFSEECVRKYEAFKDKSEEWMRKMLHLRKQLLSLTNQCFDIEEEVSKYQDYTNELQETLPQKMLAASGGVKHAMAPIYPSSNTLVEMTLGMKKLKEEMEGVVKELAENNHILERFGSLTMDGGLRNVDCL
# [3] = target: T2, IKKε (Mus musculus, UniProt Q9R0T8); experiment: IKKε kinase activity in TNF-α induced 3T3-L1 adipocytes; type: cell-based, Murine; set-up: endogenous in cells; host or cells: differentiated 3T3-L1 adipocytes; IKKε kinase activity: unit not given here; details: for IKKε kinase activity: Figure 7h, replicates
# T2 sequence (Q9R0T8 1-717): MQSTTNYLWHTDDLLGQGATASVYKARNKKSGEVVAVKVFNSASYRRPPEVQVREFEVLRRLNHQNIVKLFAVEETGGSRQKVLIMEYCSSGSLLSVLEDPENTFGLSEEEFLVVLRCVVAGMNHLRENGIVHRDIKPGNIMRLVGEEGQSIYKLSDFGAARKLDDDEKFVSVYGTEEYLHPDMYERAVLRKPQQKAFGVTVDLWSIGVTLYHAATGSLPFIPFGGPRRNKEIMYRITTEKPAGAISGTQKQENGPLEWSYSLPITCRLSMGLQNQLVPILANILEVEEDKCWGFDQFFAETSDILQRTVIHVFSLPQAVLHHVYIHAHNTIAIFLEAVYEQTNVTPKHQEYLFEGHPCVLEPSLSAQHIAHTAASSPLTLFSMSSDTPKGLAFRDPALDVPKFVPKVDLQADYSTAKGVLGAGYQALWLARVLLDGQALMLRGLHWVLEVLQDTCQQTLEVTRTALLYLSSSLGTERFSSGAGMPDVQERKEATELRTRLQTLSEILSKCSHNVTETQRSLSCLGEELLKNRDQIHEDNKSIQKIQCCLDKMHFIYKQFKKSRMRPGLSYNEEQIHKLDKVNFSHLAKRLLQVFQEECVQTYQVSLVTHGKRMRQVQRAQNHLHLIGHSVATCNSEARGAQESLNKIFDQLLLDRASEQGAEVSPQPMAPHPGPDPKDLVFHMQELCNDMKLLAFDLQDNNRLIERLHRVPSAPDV
# [4] = target: T2, IKKε; experiment: IKKε activity assay in eWAT; type: in vivo, mice; set-up: The adipose tissue was ultrasound-crushed in PBS buffer solution (1:9 w/v) to prepare the tissue homogenate; from tissue; host or cells: epididymal white adipose tissue (eWAT) and brown adipose tissue (BAT) of C57BLKS WT and db/db mice; details: for the expression of IKKε in eWAT of db/db mice: Figure 6b, individual values
# Method: The adipose tissue was ultrasound-crushed in PBS buffer solution (1:9 w/v) to prepare the tissue homogenate. The tissue homogenate was centrifuged at 5000 × g for 10 min, and the supernatant was taken for detection. Briefly, samples or standards were added to the microplates pre-coated with IKKε antibody or TBK1 antibody. Then horseradish peroxidase (HRP) labeled antibody was added and incubated at 37 °C for 60 min. After thorough washing, the 3,3′,5,5′-tetramethylbenzidine (TMB) substrate was used for color development, and the absorbance (OD value) was determined at 450 nm.
# [5] = TNF-α induced 3T3-L1 adipocytes, BJ treatment for 24 h
smiles,measurement,setting,value
"CC(C)Cc1ccc(C(C)C(=O)[O-])cc1.COc1ccc2cc3[n+](cc2c1OC)CCc1cc2c(cc1-3)OCO2.O.O.O.O [BJ, berberine-ibuprofen]",Expression of UCP1 and phosphorylation of TBK1 at Ser172 in eWAT,[1],increased
same,Protein levels of IKKε and TBK1 in eWAT,"[1]; both doses of BJ, western blotting",significantly reduced
same,AMPKα Thr172 phosphorylation (p-AMPKα) in eWAT,[1]; inhibited in db/db eWAT,restored
same,TBK1 kinase activity,[2]; TNF-α(50ng/ml)+3μM BJ,30.9473 and 32.9827 and 24.4703 and 29.2741 and 25.0999 and 33.9831
same,TBK1 kinase activity,[2]; TNF-α(50ng/ml)+10μM BJ,22.2193 and 16.8634 and 20.5634 and 20.4771 and 22.3055 and 16.9152
same,TBK1 expression level / kinase activity,[2]; [5],markedly decreased
same,IKKε kinase activity,[3]; TNF-α(50ng/ml)+3μM BJ,47.3662 and 40.5834 and 38.8273 and 37.402 and 43.0522 and 46.31
same,IKKε kinase activity,[3]; TNF-α(50ng/ml)+10μM BJ,22.5765 and 26.127 and 25.2998 and 23.4546 and 23.7218 and 26.8142
same,IKKε expression level / kinase activity,[3]; [5],markedly decreased
same,the expression of IKKε in eWAT of db/db mice,[4]; db/db+BJ 75mg/kg,0.731 U/g and 0.653 U/g and 0.634 U/g and 0.668 U/g and 0.673 U/g and 0.708 U/g
same,the expression of IKKε in eWAT of db/db mice,[4]; db/db+BJ 150mg/kg,0.443 U/g and 0.517 U/g and 0.416 U/g and 0.438 U/g and 0.466 U/g and 0.49 U/g
same,IKKε kinase activity in eWAT,"[4]; db/db mice, both doses of BJ (75 and 150 mg/kg)",significantly reduced
